Results: patent US20100056524A1, “Compound” (priority 2008, published 2010)
pIC50: −log10 of the molar value. Where a name gives a salt, the structure may show the parent alone.

Biological target: T1, TBK1 (Homo sapiens, UniProt Q9UHD2)
T1 construct: All protein kinases were of human origin and encoded full length proteins, unless indicated otherwise; His6; made in house; host or cells: insect Sf21 cells
T1 sequence (Q9UHD2 1-729): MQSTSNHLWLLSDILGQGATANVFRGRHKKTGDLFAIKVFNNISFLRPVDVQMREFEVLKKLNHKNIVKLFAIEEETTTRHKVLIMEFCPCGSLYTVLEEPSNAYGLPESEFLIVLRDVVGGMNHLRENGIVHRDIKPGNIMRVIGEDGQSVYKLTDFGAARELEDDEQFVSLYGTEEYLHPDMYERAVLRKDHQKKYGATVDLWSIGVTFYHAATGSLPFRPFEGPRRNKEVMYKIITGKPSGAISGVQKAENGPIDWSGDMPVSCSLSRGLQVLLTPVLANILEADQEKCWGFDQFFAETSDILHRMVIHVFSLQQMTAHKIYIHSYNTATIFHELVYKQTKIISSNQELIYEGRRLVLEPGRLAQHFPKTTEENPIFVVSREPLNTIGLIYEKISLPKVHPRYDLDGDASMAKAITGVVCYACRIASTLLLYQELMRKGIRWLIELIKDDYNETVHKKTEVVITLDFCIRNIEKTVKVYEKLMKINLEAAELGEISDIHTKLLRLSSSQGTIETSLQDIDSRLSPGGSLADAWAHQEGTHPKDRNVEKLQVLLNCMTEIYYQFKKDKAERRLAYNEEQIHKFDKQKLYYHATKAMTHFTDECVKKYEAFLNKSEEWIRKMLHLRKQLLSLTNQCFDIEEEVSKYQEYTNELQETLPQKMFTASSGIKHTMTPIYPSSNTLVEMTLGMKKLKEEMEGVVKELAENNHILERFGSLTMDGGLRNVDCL
Experiment: TBK1 protein kinase assay ([γ-33P]ATP, P81 filterplates)
Type: biochemical
Settings: 50 μM ATP; read-out: Potency (TBK1 IC50 potency score)
How it was run: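 Human TBK1 assayed for 30 min with peptide substrate (300 μM), 50 μM [γ-33P]ATP and 10 mM magnesium acetate in 50 mM Tris/HCl pH 7.5, 0.1 mM EGTA, 0.1% 2-mercaptoethanol. Stopped with orthophosphoric acid and counted on P81 filters. IC50 from 10 compound concentrations.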

SMILES	pIC50
O=C(NCCCNc1nc(Nc2ccc(N3CCOCC3)nc2)ncc1C1CC1)C1CCC1 [Example 93, Cyclobutanecarboxylic acid {3-[5-cyclopropyl-2-(6-morpholin-4-yl-pyridin-3-ylamino)-pyrimidin-4-ylamino]-propyl}-amide]	> 7.00
O=C(CC1CCCC1)NCCCNc1nc(Nc2cccc(F)c2)ncc1C1CC1 [Example 6, 2-Cyclopentyl-N-{3-[5-cyclopropyl-2-(3-fluoro-phenylamino)-pyrimidin-4-ylamino]-propyl}-acetamide trifluoroacetic acid salt]	> 7.00
O=C(NCCCNc1nc(Nc2cccnc2)ncc1C1CC1)C1CCC1 [Example 65, Cyclobutanecarboxylic acid {3-[5-cyclopropyl-2-(pyridin-3-ylamino)-pyrimidin-4-ylamino]-propyl}-amide]	> 7.00
Cn1cc(-c2ccc(Nc3ncc(C4CC4)c(NCCCNC(=O)C4CCC4)n3)cn2)cn1 [Example 115, Cyclobutanecarboxylic acid (3-{5-cyclopropyl-2-[6-(1-methyl-1H-pyrazol-4-yl)-pyridin-3-ylamino]-pyrimidin-4-ylamino}-propyl)-amide]	> 7.00
O=C(NCCCOc1nc(Nc2cccc(F)c2)ncc1C1CC1)C1CCC1 [Example 105]	6.00 to 7.00
O=C(NCCCNc1nc(Nc2cnc(N3CCOCC3)nc2)ncc1C1CC1)C1CCC1 [Example 152, Cyclobutanecarboxylic acid {3-[5-cyclopropyl-2-(2-morpholin-4-yl-pyrimidin-5-ylamino)-pyrimidin-4-ylamino]-propyl}-amide]	> 7.00
Cn1ncc2cc(Nc3ncc(C4CC4)c(NCCCNC(=O)C4CCC4)n3)ccc21 [Example 137, Cyclobutanecarboxylic acid {3-[5-cyclopropyl-2-(1-methyl-1H-indazol-5-ylamino)-pyrimidin-4-ylamino]-propyl}-amide]	> 7.00
CN1CCN(c2cccc(Nc3ncc(C4CC4)c(NCCCNC(=O)C4CCC4)n3)c2)CC1 [Example 91, Cyclobutanecarboxylic acid (3-{5-cyclopropyl-2-[3-(4-methyl-piperazin-1-yl)-phenylamino]-pyrimidin-4-ylamino}-propyl)-amide. Trifluoroacetic acid salt]	> 7.00
COC(=O)c1cccc(Nc2ncc(C3CC3)c(NCCCNC(=O)c3cccs3)n2)c1 [Example 33, 3-(5-Cyclopropyl-4-{3-[(thiophene-2-carbonyl)-amino]-propylamino}-pyrimidin-2-ylamino)-benzoic acid methyl ester trifluoroacetic acid salt]	6.00 to 7.00
O=C(NCCCNc1nc(Nc2ccc(C(=O)N3CCOCC3)cc2)ncc1C1CC1)C1CCC1 [Example 174, Cyclobutanecarboxylic acid (3-{5-cyclopropyl-2-[4-(morpholine-4-carbonyl)-phenylamino]-pyrimidin-4-ylamino}-propyl)-amide]	> 7.00
Cc1nc2ccc(Nc3ncc(C4CC4)c(NCCCNC(=O)C4CCC4)n3)cc2[nH]1 [Example 209, Cyclobutanecarboxylicacid{3-[5-cyclopropyl-2-(2-methyl-3H-benzimidazol-5-ylamino)-pyrimidin-4-ylamino]-propyl}-amide]	> 7.00
O=C(NCCCNc1nc(Nc2cccc(F)c2)ncc1C1CC1)C1CCOC1 (stereo not drawn) [Example 14, Tetrahydro-furan-3-carboxylic acid {3-[5-cyclopropyl-2-(3-fluoro-phenylamino)-pyrimidin-4-ylamino]-propyl}-amide]	> 7.00
O=C1CCCCN1CCCNc1nc(Nc2cccc(F)c2)ncc1C1CC1 [Example 110]	6.00 to 7.00
CN1CCN(C(=O)c2cccc(Nc3ncc(C4CC4)c(NCCCNC(=O)C4CCC4)n3)c2)CC1 [Example 77, Cyclobutanecarboxylic acid (3-{5-cyclopropyl-2-[3-(4-methyl-piperazine-1-carbonyl)-phenylamino]-pyrimidin-4-ylamino}-propyl)-amide]	> 7.00
O=C(NCCCNc1nc(Nc2ccc(OCCN3CCOCC3)nc2)ncc1C1CC1)C1CCC1 [Example 154, Cyclobutanecarboxylic acid (3-{5-cyclopropyl-2-[6-(2-morpholin-4-yl-ethoxy)-pyridin-3-ylamino]-pyrimidin-4-ylamino}-propyl)-amide]	> 7.00
Cc1oncc1C(=O)NCCCNc1nc(Nc2cccc(F)c2)ncc1C1CC1 [Example 8, 5-Methyl-isoxazole-4-carboxylic acid{3-[5-cyclopropyl-2-(3-fluoro-phenylamino)-pyrimidin-4-ylamino]-propyl}-amide trifluoroacetic acid salt]	> 7.00
O=C(NCCCNc1nc(Nc2cnn(CC3CC3)c2)ncc1C1CC1)C1CCC1 [Example 201, Cyclobutanecarboxylic acid {3-[5-cyclopropyl-2-(1-cyclopropylmethyl-1H-pyrazol-4-ylamino)-pyrimidin-4-ylamino]-propyl}-amide]	> 7.00
O=C(NCCCNc1nc(Nc2cccc(F)c2)ncc1C1CC1)c1nc[nH]n1 [Example 9, 1H-1,2,4-Triazole-3-carboxylic acid {3-[5-cyclopropyl-2-(3-fluoro-phenylamino)-pyrimidin-4-ylamino]-propyl}-amide trifluoroacetic acid salt]	6.00 to 7.00
O=C(NCCCNc1nc(Nc2ccc3[nH]c(C(F)(F)F)nc3c2)ncc1C1CC1)c1cccs1 [Example 62, Thiophene-2-carboxylic acid {3-[5-cyclopropyl-2-(2-trifluoromethyl-1H-benzimidazol-5-ylamino)-pyrimidin-4-ylamino]-propyl}-amide]	5.00 to 6.00
Nc1cccc(Nc2ncc(C3CC3)c(NCCCNC(=O)c3cccs3)n2)c1 [Example 69, Thiophene-2-carboxylic acid {3-[2-(3-amino-phenylamino)-5-cyclopropyl-pyrimidin-4-ylamino]-propyl}-amide]	> 7.00
O=C(NCCCNc1nc(Nc2cnn(C3CCOCC3)c2)ncc1C1CC1)C1CCC1 [Example 192, Cyclobutanecarboxylic acid (3-{5-cyclopropyl-2-[1-(tetrahydro-pyran-4-yl)-1H-pyrazol-4-ylamino]-pyrimidin-4-ylamino}-propyl)-amide]	> 7.00
O=C(NCCCNc1nc(Nc2ccc(CCN3CCCC3)cc2)ncc1C1CC1)C1CCC1 [Example 183, Cyclobutanecarboxylic acid (3-{5-cyclopropyl-2-[4-(2-pyrrolidin-1-yl-ethyl)-phenylamino]-pyrimidin-4-ylamino}-propyl)-amide]	> 7.00
O=C(NCCCNc1nc(Nc2cccc(-c3cnco3)c2)ncc1C1CC1)C1CCC1 [Example 87, Cyclobutanecarboxylic acid {3-[5-cyclopropyl-2-(3-oxazol-5-yl-phenylamino)-pyrimidin-4-ylamino]-propyl}-amide]	> 7.00
Cc1cccn(CCCNc2nc(Nc3cccc(F)c3)ncc2C2CC2)c1=O [Example 111, 1-{3-[5-Cyclopropyl-2-(3-fluoro-phenylamino)-pyrimidin-4-ylamino]-propyl}-3-methyl-H-pyridin-2-one]	6.00 to 7.00
O=C(NCCCNc1nc(Nc2ccc(N3CCCC3)nc2)ncc1C1CC1)C1CCC1 [Example 151, Cyclobutanecarboxylic acid {3-[5-cyclopropyl-2-(6-pyrrolidin-1-yl-pyridin-3-ylamino)-pyrimidin-4-ylamino]-propyl}-amide]	> 7.00
O=C(NCCCNc1nc(Nc2ccc(-n3cncn3)cc2)ncc1C1CC1)C1CCC1 [Example 169, Cyclobutanecarboxylic acid (3-{5-cyclopropyl-2-[4-(2H-1,2,4-triazol-1-yl)-phenylamino]-pyrimidin-4-ylamino}-propyl)-amide]	> 7.00
CN(C)C(=O)c1ccc(Nc2ncc(C3CC3)c(NCCCNC(=O)C3CCC3)n2)cc1 [Example 180, 4-{4-[3-(Cyclobutanecarbonyl-amino)-propylamino]-5-cyclopropyl-pyrimidin-2-ylamino}-N,N-dimethyl-benzamide]	> 7.00
COCCNC(=O)c1cccc(Nc2ncc(C3CC3)c(NCCCNC(=O)C3CCC3)n2)c1 [Example 73, 3-{4-[3-(Cyclobutanecarbonyl-amino)-propylamino]-5-cyclopropyl-pyrimidin-2-ylamino}-N-(2-methoxy-ethyl)-benzamide]	> 7.00
O=C(NCCCNc1nc(Nc2cnn(CCN3CCCCC3)c2)ncc1C1CC1)C1CCC1 [Example 160, Cyclobutanecarboxylic acid (3-{5-cyclopropyl-2-[1-(2-piperidin-1-yl-ethyl)-1H-pyrazol-4-ylamino]-pyrimidin-4-ylamino}-propyl)-amide]	> 7.00
Cn1cnc(C(=O)NCCCNc2nc(Nc3cccc(F)c3)ncc2C2CC2)c1 [Example 10, 1-Methyl-1H-imidazole-4-carboxylic acid {3-[5-cyclopropyl-2-(3-fluoro-phenylamino)-pyrimidin-4-ylamino]-propyl}-amide trifluoroacetic acid salt]	5.00 to 6.00
